Data as given in patent US20180064646A1, “METHOD AND DEVICE FOR ADMINISTERING XINAFOATE SALT OF N4-(2,2-DIFLUORO-4H-BENZO[1,4]OXAZIN-3-ONE)-6-YL]-5-FLUORO-N2-[3-(METHYLAMINOCARBONYLMETHYLENEOXY)PHENYL]2,4-PYRIMIDINEDIAMINE” (Rigel Pharmaceutical, Inc., priority 2011, published 2018).
Counter-ions that a name gives are not always drawn.

Key:
Type in all cases: physicochemical
[1] = Solvation/hydration assessed by thermogravimetric analysis (TGA); solid form screening; details: for hydration or solvation: TGA, ambient to 300° C. at 20° C./min
Experimental: (§1) Hygroscopicity was assessed using dynamic vapor sorption equipment (Surface Measurement Systems Ltd, model DVS-1). The analysis was conducted at 30° C. with a nitrogen gas flow of 200 cc/min. Water sorption and desorption were determined in the range 0 to 90% relative humidity (RH) using 15% RH intervals. Exposure was for a minimum of 2 hours at each humidity, or until the rate of weight change was less than 0.0003%/minute (averaged over 10 minutes). Sample weight was 12.6 mg. The sample was weighed using a CAHN D-200, seven place digital recording balance, which is an integral part of the equipment. […] Solvation/Hydration was assessed by thermogravimetric analysis (TGA) using a TA Instruments Hi-Res TGA 2950 instrument measuring the weight loss of an 8.8 mg sample in an open platinum pan. The sample was heated at 20° C./min from ambient to 300° C. utilizing a nitrogen furnace purge gas.

[2] = Hygroscopicity by dynamic vapor sorption (DVS)
Experimental: as §1

[3] = Solid state stability and excipient compatibility on storage (drug content and impurities); details: for % main band remaining versus control: API
Experimental: In order to test for solid state stability and excipient compatibility, a sample of the xinafoate salt was micronized by jet milling (particle size: D10=0.24 μm; D50=1.15 D90=4.29 μm) and the resulting powder was blended at a 1:100 weight ratio with lactose monohydrate (Respitose grade SV008). Samples were stored for 12 weeks at 25° C./60% relative humidity and 40° C./75% relative humidity and assayed for remaining drug content and impurities at 4, 8 and 12 weeks. A control sample was stored at 5° C./0% humidity.

Row | SMILES | hydration or solvation [1] | solvate formation ([1]; nine solvents tested) | hygroscopicity ([2]; DVS, 0 to 90% RH, 30° C.) | water sorption ([2]; at 90% RH, 30° C., DVS, unmicronized sample) [%] | water sorption ([2]; at 90% relative humidity, following micronization using jet milling) [%] | solid form after micronization ([2]; following micronization using jet milling) | time for which stable ([3]; 25° C./60% relative humidity) | time for which stable ([3]; 40° C./75% relative humidity) | % main band remaining versus control ([3]; 25° C./60% RH, 4 weeks, control 5° C./0% humidity) [%] | % main band remaining versus control ([3]; 25° C./60% RH, 8 weeks) [%] | % main band remaining versus control ([3]; 25° C./60% RH, 12 weeks) [%] | % main band remaining versus control ([3]; 40° C./75% RH, 4 weeks) [%] | % main band remaining versus control ([3]; 40° C./75% RH, 8 weeks) [%] | % main band remaining versus control ([3]; 40° C./75% RH, 12 weeks) [%]
1 | CNC(=O)COc1cccc(Nc2ncc(F)c(Nc3ccc4c(c3)NC(=O)C(F)(F)O4)n2)c1 [free base, N4-[(2,2-difluoro-4H-benzo[1,4]oxazin-3-one)-6-yl]-5-fluoro-N2-[3-(methylaminocarbonylmethyleneoxy)phenyl]-2,4-pyrimidinediamine] | hydrates to form a hemihydrate | formed a different solvated form in each of nine solvents tested | – | – | – | – | – | – | – | – | – | – | – | –
2 | CNC(=O)COc1cccc(Nc2ncc(F)c(Nc3ccc4c(c3)NC(=O)C(F)(F)O4)n2)c1 [xinafoate salt, N4-[(2,2-difluoro-4H-benzo[1,4]oxazin-3-one)-6-yl]-5-fluoro-N2-[3-(methylaminocarbonylmethyleneoxy)phenyl]-2,4-pyrimidinediamine] | does not show any hydration or solvation | – | essentially non-hygroscopic | 0.6 | 0.9 | no change in solid form | at least two years | at least six months | 100.2 | 99.9 | 100.1 | 100.4 | 100.0 | 100.0
